Our source for the relative viability values is the supplement of paper PMC10307832.

Common to all, as to experiment: relative viability (nuclei count vs DMSO), 5 days (fraction); higher = more cells survive
Compound in the assay “Serdemetan + Lapatinib”: c1ccc2c(CCNc3ccc(Nc4ccncc4)cc3)c[nH]c2c1 [Serdemetan] + CS(=O)(=O)CCNCc1ccc(-c2ccc3ncnc(Nc4ccc(OCc5cccc(F)c5)c(Cl)c4)c3c2)o1 [Lapatinib] (partner 2 µM)
An outline of the steps: (§1)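 Lung cancer cell lines were seeded in 1536-well plates and dosed by pin tool the next day, with either a single drug or a fixed anchor-drug dose combined with five library-drug doses (not always all listed) spaced in √10 steps. Five days later, one step fixed the cells and stained their nuclei (final 0.05% Triton X-100, 1% formaldehyde, 1 ug/ml Hoechst), and nuclei were counted on 4× images. Relative viability is the nuclei count in treated wells divided by the count in vehicle wells, and each value is the median of duplicate plates.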

Compound in the assay “Selisistat + OSI-027”: C1CC(C2=C(C1)C3=C(N2)C=CC(=C3)Cl)C(=O)N [Selisistat] + COc1cccc2cc(-c3nc([C@H]4CC[C@H](C(=O)O)CC4)n4ncnc(N)c34)[nH]c12 [OSI-027] (partner 0.5 µM)
The gist of the method:
as §1

Compound in the assay “Serdemetan + AZD7762”: c1ccc2c(CCNc3ccc(Nc4ccncc4)cc3)c[nH]c2c1 [Serdemetan] + NC(=O)Nc1cc(-c2cccc(F)c2)sc1C(=O)N[C@H]1CCCNC1 [AZD7762] (partner 0.2 µM)
An outline of the steps:
as §1

Compound in the assay “Serdemetan + Luminespib”: c1ccc2c(CCNc3ccc(Nc4ccncc4)cc3)c[nH]c2c1 [Serdemetan] + CCNC(=O)c1noc(-c2cc(C(C)C)c(O)cc2O)c1-c1ccc(CN2CCOCC2)cc1 [Luminespib] (partner 0.01 µM)
The gist of the method:
as §1

With NCI-H460, the relative viability with Serdemetan + Lapatinib (first compound 0.04 µM) is 0.878; in the assay with Serdemetan + Lapatinib (first compound 0.1265 µM) it was 0.936; with Serdemetan + Lapatinib (first compound 0.4 µM), 0.866; with Serdemetan + Lapatinib (first compound 1.265 µM) it was 0.659; with Serdemetan + Lapatinib (first compound 4 µM), 0.132; with Selisistat + OSI-027 (first compound 0.4 µM) it was 0.695. For the same cell line, the relative viability in the assay with Selisistat + OSI-027 (first compound 1.265 µM) worked out at 0.667; with Selisistat + OSI-027 (first compound 4 µM), 0.471; in the assay with Selisistat + OSI-027 (first compound 12.65 µM), 0.557; with Selisistat + OSI-027 (first compound 40 µM), 0.666; with Serdemetan + AZD7762 (first compound 0.04 µM), 0.461; with Serdemetan + AZD7762 (first compound 0.1265 µM) it was 0.547. Moreover, the relative viability is 0.571 with Serdemetan + AZD7762 (first compound 0.4 µM); 0.229 with Serdemetan + AZD7762 (first compound 1.265 µM); 0.141 in the assay with Serdemetan + AZD7762 (first compound 4 µM); 0.0305 in the assay with Serdemetan + Luminespib (first compound 0.04 µM); 0.0294 with Serdemetan + Luminespib (first compound 0.1265 µM); 0.0326 with Serdemetan + Luminespib (first compound 0.4 µM). The relative viability amounted to 0.0303 with Serdemetan + Luminespib (first compound 1.265 µM) and 0.0264 in the assay with Serdemetan + Luminespib (first compound 4 µM).

Take NCI-H596: the relative viability amounted to 1.07 with Serdemetan + Lapatinib (first compound 0.04 µM); 0.972 in the assay with Serdemetan + Lapatinib (first compound 0.1265 µM); 1.09 in the assay with Serdemetan + Lapatinib (first compound 0.4 µM); 0.871 with Serdemetan + Lapatinib (first compound 1.265 µM); 0.666 with Serdemetan + Lapatinib (first compound 4 µM); 0.793 with Selisistat + OSI-027 (first compound 0.4 µM). Also, the relative viability with Selisistat + OSI-027 (first compound 1.265 µM) amounted to 0.692; in the assay with Selisistat + OSI-027 (first compound 4 µM), 0.505; with Selisistat + OSI-027 (first compound 12.65 µM), 0.698; with Selisistat + OSI-027 (first compound 40 µM) it was 0.732; in the assay with Serdemetan + AZD7762 (first compound 0.04 µM), 1.17; with Serdemetan + AZD7762 (first compound 0.1265 µM), 1.19. Moreover, the relative viability with Serdemetan + AZD7762 (first compound 0.4 µM) worked out at 1.08; in the assay with Serdemetan + AZD7762 (first compound 1.265 µM), 0.922; in the assay with Serdemetan + AZD7762 (first compound 4 µM) it was 1.16; with Serdemetan + Luminespib (first compound 0.04 µM), 1.02; in the assay with Serdemetan + Luminespib (first compound 0.1265 µM), 0.955; with Serdemetan + Luminespib (first compound 0.4 µM), 0.861. The relative viability in the assay with Serdemetan + Luminespib (first compound 1.265 µM) was determined as 0.59; in the assay with Serdemetan + Luminespib (first compound 4 µM), 0.602.

With NCI-H647, the relative viability was 1.06 in the assay with Serdemetan + Lapatinib (first compound 0.04 µM); 1.11 with Serdemetan + Lapatinib (first compound 0.1265 µM); 1.1 in the assay with Serdemetan + Lapatinib (first compound 0.4 µM); 0.669 in the assay with Serdemetan + Lapatinib (first compound 1.265 µM); 0.475 with Serdemetan + Lapatinib (first compound 4 µM); 0.746 with Selisistat + OSI-027 (first compound 0.4 µM). In addition, the relative viability with Selisistat + OSI-027 (first compound 1.265 µM) turned out to be 0.58; in the assay with Selisistat + OSI-027 (first compound 4 µM), 0.614; in the assay with Selisistat + OSI-027 (first compound 12.65 µM) it was 0.713; in the assay with Selisistat + OSI-027 (first compound 40 µM), 0.829; with Serdemetan + AZD7762 (first compound 0.04 µM), 0.556; in the assay with Serdemetan + AZD7762 (first compound 0.1265 µM) it was 0.382. The relative viability with Serdemetan + AZD7762 (first compound 0.4 µM) stood at 0.396; in the assay with Serdemetan + AZD7762 (first compound 1.265 µM) it was 0.41; in the assay with Serdemetan + AZD7762 (first compound 4 µM) it was 0.285; with Serdemetan + Luminespib (first compound 0.04 µM) it was 0.272; with Serdemetan + Luminespib (first compound 0.1265 µM), 0.185; in the assay with Serdemetan + Luminespib (first compound 0.4 µM) it was 0.176. Further, the relative viability is 0.123 with Serdemetan + Luminespib (first compound 1.265 µM) and 0.112 in the assay with Serdemetan + Luminespib (first compound 4 µM).

Take NCI-H650: the relative viability with Serdemetan + Lapatinib (first compound 0.04 µM) turned out to be 0.779; with Serdemetan + Lapatinib (first compound 0.1265 µM), 0.844; in the assay with Serdemetan + Lapatinib (first compound 0.4 µM), 1.05; in the assay with Serdemetan + Lapatinib (first compound 1.265 µM) it was 0.667; with Serdemetan + Lapatinib (first compound 4 µM) it was 0.669; with Selisistat + OSI-027 (first compound 0.4 µM), 0.524. For the same cell line, the relative viability with Selisistat + OSI-027 (first compound 1.265 µM) worked out at 0.523; with Selisistat + OSI-027 (first compound 4 µM), 0.715; with Selisistat + OSI-027 (first compound 12.65 µM) it was 0.496; with Selisistat + OSI-027 (first compound 40 µM), 0.555; with Serdemetan + AZD7762 (first compound 0.04 µM), 0.854; in the assay with Serdemetan + AZD7762 (first compound 0.1265 µM), 0.977. For the same cell line, the relative viability with Serdemetan + AZD7762 (first compound 0.4 µM) turned out to be 1.2; in the assay with Serdemetan + AZD7762 (first compound 1.265 µM), 1.02; with Serdemetan + AZD7762 (first compound 4 µM) it was 0.933; with Serdemetan + Luminespib (first compound 0.04 µM), 0.659; with Serdemetan + Luminespib (first compound 0.1265 µM), 0.875; in the assay with Serdemetan + Luminespib (first compound 0.4 µM) it was 0.732. Moreover, the relative viability in the assay with Serdemetan + Luminespib (first compound 1.265 µM) is 0.576; in the assay with Serdemetan + Luminespib (first compound 4 µM), 0.505.

Consider NCI-H727, for which the relative viability with Serdemetan + Lapatinib (first compound 0.04 µM) was 0.768; in the assay with Serdemetan + Lapatinib (first compound 0.1265 µM) it was 0.919; with Serdemetan + Lapatinib (first compound 0.4 µM), 0.758; in the assay with Serdemetan + Lapatinib (first compound 1.265 µM), 0.797; with Serdemetan + Lapatinib (first compound 4 µM), 0.416; with Selisistat + OSI-027 (first compound 0.4 µM), 0.587. Besides, the relative viability turned out to be 0.641 with Selisistat + OSI-027 (first compound 1.265 µM); 0.641 with Selisistat + OSI-027 (first compound 12.65 µM); 0.511 in the assay with Selisistat + OSI-027 (first compound 40 µM); 0.562 with Serdemetan + AZD7762 (first compound 0.04 µM); 0.437 in the assay with Serdemetan + AZD7762 (first compound 0.1265 µM); 0.526 in the assay with Serdemetan + AZD7762 (first compound 0.4 µM). Further, the relative viability with Serdemetan + AZD7762 (first compound 1.265 µM) worked out at 0.443; with Serdemetan + AZD7762 (first compound 4 µM), 0.481; in the assay with Serdemetan + Luminespib (first compound 0.04 µM) it was 0.319; with Serdemetan + Luminespib (first compound 0.1265 µM), 0.481; in the assay with Serdemetan + Luminespib (first compound 0.4 µM), 0.288; in the assay with Serdemetan + Luminespib (first compound 1.265 µM), 0.265. Also, in the assay with Serdemetan + Luminespib (first compound 4 µM), the relative viability came to 0.385.

For NCI-H838, the relative viability with Serdemetan + Lapatinib (first compound 0.04 µM) came to 0.9; with Serdemetan + Lapatinib (first compound 0.1265 µM), 0.986; with Serdemetan + Lapatinib (first compound 0.4 µM), 0.9; with Serdemetan + Lapatinib (first compound 1.265 µM), 0.86; in the assay with Serdemetan + Lapatinib (first compound 4 µM), 1.01; in the assay with Selisistat + OSI-027 (first compound 0.4 µM), 0.449. In addition, the relative viability with Selisistat + OSI-027 (first compound 1.265 µM) was found to be 0.368; in the assay with Selisistat + OSI-027 (first compound 4 µM), 0.295; with Selisistat + OSI-027 (first compound 12.65 µM), 0.407; with Selisistat + OSI-027 (first compound 40 µM) it was 0.409; with Serdemetan + AZD7762 (first compound 0.04 µM), 0.866; with Serdemetan + AZD7762 (first compound 0.1265 µM), 0.94. Moreover, the relative viability in the assay with Serdemetan + AZD7762 (first compound 0.4 µM) is 0.887; with Serdemetan + AZD7762 (first compound 1.265 µM) it was 0.849; with Serdemetan + AZD7762 (first compound 4 µM), 0.882; in the assay with Serdemetan + Luminespib (first compound 0.04 µM), 0.266; in the assay with Serdemetan + Luminespib (first compound 0.1265 µM), 0.319; with Serdemetan + Luminespib (first compound 0.4 µM), 0.383. The relative viability with Serdemetan + Luminespib (first compound 1.265 µM) is 0.2; with Serdemetan + Luminespib (first compound 4 µM), 0.328.

As to NCI-H1355, the relative viability is 0.938 with Serdemetan + Lapatinib (first compound 0.04 µM); 1.13 in the assay with Serdemetan + Lapatinib (first compound 0.1265 µM); 0.911 in the assay with Serdemetan + Lapatinib (first compound 0.4 µM); 1.02 with Serdemetan + Lapatinib (first compound 1.265 µM); 0.973 with Serdemetan + Lapatinib (first compound 4 µM); 0.465 with Selisistat + OSI-027 (first compound 0.4 µM). The relative viability in the assay with Selisistat + OSI-027 (first compound 1.265 µM) turned out to be 0.426; with Selisistat + OSI-027 (first compound 4 µM) it was 0.281; in the assay with Selisistat + OSI-027 (first compound 12.65 µM), 0.407; with Selisistat + OSI-027 (first compound 40 µM), 0.404; with Serdemetan + AZD7762 (first compound 0.04 µM), 0.631; with Serdemetan + AZD7762 (first compound 0.1265 µM) it was 0.512. Further, the relative viability with Serdemetan + AZD7762 (first compound 0.4 µM) came to 0.623; with Serdemetan + AZD7762 (first compound 1.265 µM) it was 0.469; with Serdemetan + AZD7762 (first compound 4 µM) it was 0.484; with Serdemetan + Luminespib (first compound 0.04 µM), 0.671; in the assay with Serdemetan + Luminespib (first compound 0.1265 µM), 0.667; with Serdemetan + Luminespib (first compound 0.4 µM), 0.609. Further, the relative viability with Serdemetan + Luminespib (first compound 1.265 µM) came to 0.353; with Serdemetan + Luminespib (first compound 4 µM), 0.449.
